Measured values: US20140135310A1, “SULPHONAMIDE DERIVATIVES OF ALICYCLIC AMINES FOR THE TREATMENT OF CENTRAL NERVOUS SYSTEM DISEASES” (Adamed Sp. z o.o., priority 2011, published 2014)

Assays:
[1] = biological target: T1, 5-HT1A receptor (rat hippocampus) (Rattus norvegicus, UniProt P19327); assay: Radioligand binding assay, serotoninergic 5-HT1A receptors; details: binding assay result in %, Table 5a;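 note: test compound at 1 µM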
T1 construct: hippocampus; from tissue; host or cells: rat hippocampus
T1 sequence (P19327 1-422): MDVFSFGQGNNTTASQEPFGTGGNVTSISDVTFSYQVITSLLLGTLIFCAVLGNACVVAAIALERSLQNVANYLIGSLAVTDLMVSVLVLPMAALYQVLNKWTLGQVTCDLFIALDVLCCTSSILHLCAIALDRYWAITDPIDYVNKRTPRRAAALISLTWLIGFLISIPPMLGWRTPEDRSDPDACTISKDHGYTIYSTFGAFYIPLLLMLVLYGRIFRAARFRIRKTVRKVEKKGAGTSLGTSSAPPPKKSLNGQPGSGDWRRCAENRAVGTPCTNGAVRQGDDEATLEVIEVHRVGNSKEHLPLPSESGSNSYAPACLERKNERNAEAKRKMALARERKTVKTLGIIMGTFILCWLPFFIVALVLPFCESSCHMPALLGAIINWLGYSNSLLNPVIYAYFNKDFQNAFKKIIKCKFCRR
Description: (§1) The specific ligand binding to the receptors is defined as the difference between the total binding and the non-specific binding determined in the presence of the excess of unlabelled ligand.
(§2) The results are expressed as a percent of control specific binding ((measured specific binding/control specific binding)×100) and as a percent inhibition of control specific binding (100−((measured specific binding/control specific binding)×100)) obtained in the presence of the test compounds. The specific ligand binding to the receptors is defined as the difference between the total binding and the nonspecific binding determined in the presence of an excess of unlabelled ligand. Scintillation counting was the method of detection of ligand binding. The IC50 values (concentration causing a half-maximal inhibition of control specific binding) were determined by non-linear regression analysis of the competition curves generated with mean replicate values using Hill equation curve fitting (Y=D+[(A−D)/(1+(C/C50)nH)], where Y=specific binding, D=minimum specific binding, A=maximum specific binding, C=compound concentration, C50=IC50, and nH=slope factor). This analysis was performed using a software developed at Cerep (Hill software) and validated by comparison with data generated by the commercial software SigmaPlot® 4.0 for Windows® (© 1997 by SPSS Inc.). The inhibition constants (Ki) were calculated using the Cheng Prusoff equation (Ki=IC50/(1+(L/KD)), where L=concentration of radioligand in the assay, and KD=affinity of the radioligand for the receptor). A scatchard plot was used to determine the Kd.
(§3) Experimental conditions for tests are given in Table 4, and results of tests for representative compounds of the invention are given in Table 5a and 5b (receptors 5-HT1A, 5-HT2A, 5-HT6 and 5-HT7) and in Table 6 (receptors 5-HT2C).

[2] = biological target: dopaminergic receptors D2 (Homo sapiens, UniProt P14416); assay: Radioligand binding assay, dopaminergic D2 receptors; details: binding assay, test compound 1×10^−6 M
dopaminergic receptors D2, sequence (P14416 whole entry): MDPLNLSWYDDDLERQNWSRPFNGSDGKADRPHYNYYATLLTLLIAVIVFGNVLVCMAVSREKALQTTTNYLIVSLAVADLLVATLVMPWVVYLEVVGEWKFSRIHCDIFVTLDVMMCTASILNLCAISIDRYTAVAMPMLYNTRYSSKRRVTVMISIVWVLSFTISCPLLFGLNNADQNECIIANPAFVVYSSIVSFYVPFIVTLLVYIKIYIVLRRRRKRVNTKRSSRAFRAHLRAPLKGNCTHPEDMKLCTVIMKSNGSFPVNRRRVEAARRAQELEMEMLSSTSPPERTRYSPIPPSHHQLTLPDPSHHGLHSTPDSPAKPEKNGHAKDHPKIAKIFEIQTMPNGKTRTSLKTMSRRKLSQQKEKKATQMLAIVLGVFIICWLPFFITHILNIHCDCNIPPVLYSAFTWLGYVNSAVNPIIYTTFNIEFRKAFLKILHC
Description: as §1, §2
(§4) Experimental conditions for tests are given in Table 1, the results of tests for representative compounds are given in Tables 2a and 2b (receptors D2 and D3) and in Table 3 (receptors D4).

[3] = biological target: dopaminergic receptors D3 (Homo sapiens, UniProt P35462); assay: Radioligand binding assay, dopaminergic D3 receptors; details: test compound 1×10^−6 M
dopaminergic receptors D3, sequence (P35462 whole entry): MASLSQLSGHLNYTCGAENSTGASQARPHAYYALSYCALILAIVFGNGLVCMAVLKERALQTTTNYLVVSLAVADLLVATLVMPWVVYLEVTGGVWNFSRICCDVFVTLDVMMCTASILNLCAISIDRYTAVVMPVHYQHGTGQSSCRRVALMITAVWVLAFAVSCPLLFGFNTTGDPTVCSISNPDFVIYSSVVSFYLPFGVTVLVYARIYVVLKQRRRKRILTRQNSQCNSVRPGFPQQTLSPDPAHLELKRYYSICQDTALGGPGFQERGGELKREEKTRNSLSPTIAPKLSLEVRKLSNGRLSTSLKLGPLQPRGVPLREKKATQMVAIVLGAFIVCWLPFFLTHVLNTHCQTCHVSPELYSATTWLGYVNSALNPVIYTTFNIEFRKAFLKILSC
Description: as §1, §2, §4

[4] = biological target: T2, 5-HT6 receptor (Homo sapiens, UniProt P50406); assay: Radioligand binding assay, serotoninergic 5-HT6 receptors; details: binding assay result in %, Table 5a;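 note: test compound at 1 µM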
T2 construct: purchased PerkinElmer
T2 sequence (P50406 whole entry): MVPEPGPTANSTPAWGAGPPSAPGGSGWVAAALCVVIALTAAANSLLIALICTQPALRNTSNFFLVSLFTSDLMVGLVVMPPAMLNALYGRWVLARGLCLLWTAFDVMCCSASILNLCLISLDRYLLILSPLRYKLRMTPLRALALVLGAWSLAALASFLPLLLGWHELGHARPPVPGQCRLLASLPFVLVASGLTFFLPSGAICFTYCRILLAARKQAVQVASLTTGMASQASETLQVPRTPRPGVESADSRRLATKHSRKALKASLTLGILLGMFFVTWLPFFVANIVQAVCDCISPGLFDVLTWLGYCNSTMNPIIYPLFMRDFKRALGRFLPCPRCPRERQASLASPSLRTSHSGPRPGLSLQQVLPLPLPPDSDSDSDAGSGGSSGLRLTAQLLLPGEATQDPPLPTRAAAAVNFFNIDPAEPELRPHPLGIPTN
Description: as §1, §2, §3
5-HT6: Bryan L. Roth. Assay Protocol Book. University of North Carolina At Chapel Hill. National Institute of Mental Health. Psychoactive Drug Screening Program. Available on-line at 31 Aug. 2008: http://pdsp.med.unc.edu/UNC-CH %20Protocol%20Book.pdf

[5] = biological target: T3, 5-HT7 receptor (Homo sapiens, UniProt P34969); assay: Radioligand binding assay, serotoninergic 5-HT7 receptors; details: binding assay result in %, Table 5a;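 note: test compound at 1 µM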
T3 construct: purchased PerkinElmer
T3 sequence (P34969 whole entry): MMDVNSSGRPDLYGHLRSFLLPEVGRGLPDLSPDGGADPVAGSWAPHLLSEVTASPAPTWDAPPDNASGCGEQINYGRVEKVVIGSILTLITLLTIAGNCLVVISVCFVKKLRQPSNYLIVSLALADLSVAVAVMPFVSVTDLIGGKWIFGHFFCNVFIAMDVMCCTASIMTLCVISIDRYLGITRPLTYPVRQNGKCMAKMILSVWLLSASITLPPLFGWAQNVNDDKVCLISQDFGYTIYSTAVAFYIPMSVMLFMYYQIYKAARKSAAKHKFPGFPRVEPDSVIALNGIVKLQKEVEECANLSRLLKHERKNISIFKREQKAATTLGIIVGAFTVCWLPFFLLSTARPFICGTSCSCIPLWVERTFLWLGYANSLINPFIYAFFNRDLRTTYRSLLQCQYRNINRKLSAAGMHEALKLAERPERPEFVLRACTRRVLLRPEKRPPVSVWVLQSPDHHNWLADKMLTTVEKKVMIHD
Description: as §1, §2, §3
5-HT7: Bryan L. Roth. Assay Protocol Book. University of North Carolina At Chapel Hill. National Institute of Mental Health. Psychoactive Drug Screening Program. Available on-line at 31 Aug. 2008: http://pdsp.med.unc.edu/UNC-CH %20Protocol%20Book.pdf

[6] = biological target: T4, 5-HT2A receptor (Homo sapiens, UniProt P28223); assay: Radioligand binding assay, serotoninergic 5-HT2A receptors; details: binding assay result in %, Table 5a
T4 construct: purchased PerkinElmer
T4 sequence (P28223 whole entry): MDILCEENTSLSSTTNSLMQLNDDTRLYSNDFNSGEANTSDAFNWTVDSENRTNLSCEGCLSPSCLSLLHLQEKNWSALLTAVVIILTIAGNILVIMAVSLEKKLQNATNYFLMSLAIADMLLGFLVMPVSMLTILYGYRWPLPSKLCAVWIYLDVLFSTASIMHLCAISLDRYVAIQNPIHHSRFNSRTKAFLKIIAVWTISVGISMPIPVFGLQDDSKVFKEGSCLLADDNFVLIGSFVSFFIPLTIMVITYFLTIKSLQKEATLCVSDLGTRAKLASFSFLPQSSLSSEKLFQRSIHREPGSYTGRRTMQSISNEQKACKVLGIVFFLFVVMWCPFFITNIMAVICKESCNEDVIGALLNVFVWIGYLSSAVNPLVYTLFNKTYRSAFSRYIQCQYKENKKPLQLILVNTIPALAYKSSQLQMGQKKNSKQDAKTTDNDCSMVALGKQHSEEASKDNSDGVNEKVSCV
Description: as §1, §2
5-HT2A: Bryan L. Roth. Assay Protocol Book. University of North Carolina At Chapel Hill. National Institute of Mental Health. Psychoactive Drug Screening Program. Available on-line at 31 Aug. 2008: http://pdsp.med.unc.edu/UNC-CH%20Protocol%20Book.pdf

[7] = biological target: T5, serotonin transporter (SERT) (Homo sapiens, UniProt P31645); assay: Radioligand binding assay, serotonin transporter (SERT); details: binding assay, test compound 1×10^−6 M
T5 construct: expressed in transfected cells; host or cells: CHO cells
T5 sequence (P31645 whole entry): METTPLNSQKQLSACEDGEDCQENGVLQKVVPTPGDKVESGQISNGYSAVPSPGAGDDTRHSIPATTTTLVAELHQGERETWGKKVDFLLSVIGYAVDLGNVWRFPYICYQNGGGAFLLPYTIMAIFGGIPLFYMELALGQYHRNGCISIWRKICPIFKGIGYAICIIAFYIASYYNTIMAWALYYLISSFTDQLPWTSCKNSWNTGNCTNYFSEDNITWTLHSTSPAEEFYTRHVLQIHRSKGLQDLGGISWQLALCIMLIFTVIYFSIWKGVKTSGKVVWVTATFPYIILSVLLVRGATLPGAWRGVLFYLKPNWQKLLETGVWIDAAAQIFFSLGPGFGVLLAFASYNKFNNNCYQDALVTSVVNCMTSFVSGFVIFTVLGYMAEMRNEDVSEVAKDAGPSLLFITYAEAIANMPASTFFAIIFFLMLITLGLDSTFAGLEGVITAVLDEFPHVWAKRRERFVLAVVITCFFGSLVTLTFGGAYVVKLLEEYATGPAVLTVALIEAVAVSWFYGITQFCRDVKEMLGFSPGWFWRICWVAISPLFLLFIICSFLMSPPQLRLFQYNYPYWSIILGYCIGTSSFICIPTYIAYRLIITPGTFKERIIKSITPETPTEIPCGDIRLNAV
Description: as §1, §2
Experimental conditions for tests are given in Table 12, and results of tests for representative compounds are given in Tables 13a and 13b.

| SMILES | inhibition at 1 µM [1] | inhibition at 1 µM [2] | inhibition at 1 µM [3] | inhibition at 1 µM [4] | inhibition at 1 µM [5] | inhibition at 1 µM [6] | inhibition at 1 µM [7] |
| --- | --- | --- | --- | --- | --- | --- | --- |
| O=S(=O)(NC1CCN(CCCc2noc3cc(F)ccc23)C1)c1ccc(Cl)cc1 (stereo not drawn) [Compound 208, 4-Chloro-N-[1-[3-(6-fluoro-1,2-benzoxazol-3-yl)propyl]pyrrolidin-3-yl]benzenesulphonamide] | 9% | 90% | 49% | 87% | 96% | 100% | -2% |
| Cc1ccc(S(=O)(=O)NC2CCN(CCCc3noc4cc(F)ccc34)C2)cc1 (stereo not drawn) [Compound 209, N-[1-[3-(6-Fluoro-1,2-benzoxazol-3-yl)propyl]pyrrolidin-3-yl]-4-methyl-benzenesulphonamide] | 11% | 64% | 34% | 62% | 90% | 86% | 6% |
| COc1ccc(S(=O)(=O)NC2CCN(CCCc3noc4cc(F)ccc34)C2)cc1 (stereo not drawn) [Compound 213, N-[1-[3-(6-Fluoro-1,2-benzoxazol-3-yl)propyl]pyrrolidin-3-yl]-4-methoxybenzenesulphonamide] | 63% | 81% | 57% | 78% | 93% | 100% | 12% |
| Cn1ccc2c(S(=O)(=O)NC3CCN(CCCc4noc5cc(F)ccc45)C3)cccc21 (stereo not drawn) [Compound 219, N-[1-[3-(6-Fluoro-1,2-benzoxazol-3-yl)propyl]pyrrolidin-3-yl]-1-methyl-indole-4-sulphonamide] | 85% | 96% | 81% | 94% | 96% | 99% | 52% |
| O=S(=O)(NCC1CCN(CCCc2noc3cc(F)ccc23)C1)c1ccc2c(c1)OCO2 (stereo not drawn) [Compound 235, N-[[1-[3-(6-Fluoro-1,2-benzoxazol-3-yl)propyl]pyrrolidin-3-yl]methyl]-1,3-benzodioxole-5-sulphonamide] | 14% | 31% | 41% | 62% | 81% | 91% | 11% |
| O=S(=O)(NCC1CCN(CCCc2noc3cc(F)ccc23)C1)c1ccc(Cl)cc1 (stereo not drawn) [Compound 242, 4-Chloro-N-[[1-[3-(6-fluoro-1,2-benzoxazol-3-yl)propyl]pyrrolidin-3-yl]methyl]benzenesulphonamide] | 11% | 55% | 71% | 60% | 83% | 99% | 37% |
| O=S(=O)(NCC1CCN(CCCc2noc3cc(F)ccc23)C1)c1cccc(Cl)c1 (stereo not drawn) [Compound 243, 3-Chloro-N-[[1-[3-(6-fluoro-1,2-benzoxazol-3-yl)propyl]pyrrolidin-3-yl]methyl]benzenesulphonamide] | 21% | 14% | 47% | 75% | 89% | 90% | 7% |
| O=S(=O)(NCC1CCN(CCCc2noc3cc(F)ccc23)C1)c1ccccc1 (stereo not drawn) [Compound 245, N-[[1-[3-(6-Fluoro-1,2-benzoxazol-3-yl)propyl]pyrrolidin-3-yl]methyl]benzenesulphonamide] | 35% | -4% | 40% | 57% | 81% | 73% | 18% |
| COc1cccc(S(=O)(=O)NCC2CCN(CCCc3noc4cc(F)ccc34)C2)c1 (stereo not drawn) [Compound 250, N-[[1-[3-(6-Fluoro-1,2-benzoxazol-3-yl)propyl]pyrrolidin-3-yl]methyl]-3-methoxy-benzenesulphonamide] | 30% | 18% | 55% | 74% | 91% | 87% | 23% |
| O=S(=O)(NCC1CCN(CCCc2noc3cc(F)ccc23)C1)c1ccc(F)cc1 (stereo not drawn) [Compound 252, 4-Fluoro-N-[[1-[3-(6-fluoro-1,2-benzoxazol-3-yl)propyl]pyrrolidin-3-yl]methyl]benzenesulphonamide] | 44% | 36% | 43% | 75% | 90% | 89% | -2% |
| O=S(=O)(NCC1CCN(CCCc2noc3cc(F)ccc23)C1)c1cccc(O)c1 (stereo not drawn) [Compound 254, N-[[1-[3-(6-Fluoro-1,2-benzoxazol-3-yl)propyl]pyrrolidin-3-yl]methyl]-3-hydroxy-benzenesulphonamide] | 49% | 75% | 34% | 78% | 102% | 98% | 10% |
| O=S(=O)(NCC1CCN(CCCc2noc3cc(F)ccc23)C1)c1ccc2c(c1)CCO2 (stereo not drawn) [Compound 256, N-[[1-[3-(6-Fluoro-1,2-benzoxazol-3-yl)propyl]pyrrolidin-3-yl]methyl]-2,3-dihydrobenzofuran-5-sulphonamide] | 29% | 37% | 25% | 74% | 92% | 87% | 40% |
| O=S(=O)(NCC1CCN(CCCc2noc3cc(F)ccc23)C1)c1cc2ccccc2o1 (stereo not drawn) [Compound 257, N-[[1-[3-(6-Fluoro-1,2-benzoxazol-3-yl)propyl]pyrrolidin-3-yl]methyl]-benzofuran-2-sulphonamide] | 87% | 92% | 62% | 94% | 88% | 100% | 20% |
| Cn1ccc2c(S(=O)(=O)NCC3CCN(CCCc4noc5cc(F)ccc45)C3)cccc21 (stereo not drawn) [Compound 259, N-[[1-[3-(6-Fluoro-1,2-benzoxazol-3-yl)propyl]pyrrolidin-3-yl]methyl]-1-methyl-indole-4-sulphonamide] | 42% | 84% | 61% | 92% | 91% | 100% | -5% |
| O=S(=O)(NCC1CCN(CCCc2noc3cc(F)ccc23)C1)c1csc2ccccc12 (stereo not drawn) [Compound 261, N-[[1-[3-(6-Fluoro-1,2-benzoxazol-3-yl)propyl]pyrrolidin-3-yl]methyl]-benzothiophene-3-sulphonamide] | 78% | 88% | 65% | 97% | 104% | 101% | 3% |
